According to ChEMBL document CHEMBL1697731, “Cheminformatics analysis of assertions mined from literature that describe drug-induced liver injury in different species” (Chem Res Toxicol, 2010):

Tests used:
[1] = system: Hepatotoxicity; test: Literature-mined compound from Fourches et al multi-species drug-induced liver injury (DILI) dataset, effect in humans; conditions: human
[2] = system: Hepatotoxicity; test: Literature-mined compound from Fourches et al multi-species drug-induced liver injury (DILI) dataset, effect in rodents; conditions: rodentia
[3] = system: Hepatotoxicity; test: Literature-mined compound from Fourches et al multi-species drug-induced liver injury (DILI) dataset, effect in non-rodents

Row | Structure (SMILES) | Hepatotoxicity [1] | Hepatotoxicity [2] | Hepatotoxicity [3] | Hepatotoxicity ([1]; Liver) | Hepatotoxicity ([2]; Liver) | Hepatotoxicity ([3]; Liver)
1 | CC1(C)O[C@@H]2C[C@H]3[C@@H]4CCC5=CC(=O)C=C[C@]5(C)[C@@]4(F)[C@@H](O)C[C@]3(C)[C@]2(C(=O)CO)O1 [TRIAMCINOLONE ACETONIDE] | no drug-induced liver injury reported | drug-induced liver injury reported | no drug-induced liver injury reported | – | – | –
2 | C[C@]12C=CC(=O)C=C1CC[C@H]1[C@@H]3C[C@@H](O)[C@](O)(C(=O)CO)[C@@]3(C)C[C@H](O)[C@@]12F [TRIAMCINOLONE] | no drug-induced liver injury reported | drug-induced liver injury reported | no drug-induced liver injury reported | – | – | –
3 | COP(=O)(OC)C(O)C(Cl)(Cl)Cl (stereo unspecified) [TRICHLORFON] | no drug-induced liver injury reported | drug-induced liver injury reported | no drug-induced liver injury reported | – | – | –
4 | O=C(O)C(Cl)(Cl)Cl [TRICHLOROACETIC ACID] | no drug-induced liver injury reported | drug-induced liver injury reported | no drug-induced liver injury reported | – | – | –
5 | ClC=C(Cl)Cl [TRICHLOROETHYLENE] | drug-induced liver injury reported | drug-induced liver injury reported | no drug-induced liver injury reported | – | – | –
6 | Oc1cc(Cl)ccc1Oc1ccc(Cl)cc1Cl [TRICLOSAN] | no drug-induced liver injury reported | drug-induced liver injury reported | no drug-induced liver injury reported | – | – | –
7 | COc1ccc(CN2CCNCC2)c(OC)c1OC [TRIMETAZIDINE] | drug-induced liver injury reported | drug-induced liver injury reported | no drug-induced liver injury reported | – | – | –
8 | CN1C(=O)OC(C)(C)C1=O [TRIMETHADIONE] | drug-induced liver injury reported | drug-induced liver injury reported | no drug-induced liver injury reported | – | – | –
9 | CC1(C)C2CCC1(CS(=O)(=O)[O-])C(=O)C2.O=C1N(Cc2ccccc2)C2C[S+]3CCCC3C2N1Cc1ccccc1 (stereo unspecified) [TRIMETHAPHAN CAMSYLATE] | no drug-induced liver injury reported | no drug-induced liver injury reported | drug-induced liver injury reported | – | – | –
10 | COc1cc(Cc2cnc(N)nc2N)cc(OC)c1OC [TRIMETHOPRIM] | – | – | – | drug-induced liver injury reported | drug-induced liver injury reported | no drug-induced liver injury reported
11 | Cc1c(C)c2c(c(C)c1O)CCC(C)(COc1ccc(CC3SC(=O)NC3=O)cc1)O2 (stereo unspecified) [TROGLITAZONE] | drug-induced liver injury reported | drug-induced liver injury reported | drug-induced liver injury reported | – | – | –
12 | CO[C@H]1C[C@H](O[C@H]2[C@H](C)[C@@H](O[C@@H]3O[C@H](C)C[C@H](N(C)C)[C@H]3OC(C)=O)[C@@H](C)C[C@@]3(CO3)C(=O)[C@H](C)[C@@H](OC(C)=O)[C@@H](C)[C@@H](C)OC(=O)[C@@H]2C)O[C@@H](C)[C@@H]1OC(C)=O [TROLEANDOMYCIN] | drug-induced liver injury reported | drug-induced liver injury reported | drug-induced liver injury reported | – | – | –
13 | Cc1cc(-c2ccc(/N=N/c3c(S(=O)(=O)[O-])cc4cc(S(=O)(=O)[O-])cc(N)c4c3O)c(C)c2)ccc1/N=N/c1c(S(=O)(=O)[O-])cc2cc(S(=O)(=O)[O-])cc(N)c2c1O.[Na+].[Na+].[Na+].[Na+] [TRYPAN BLUE] | no drug-induced liver injury reported | drug-induced liver injury reported | no drug-induced liver injury reported | – | – | –
14 | N[C@@H](Cc1c[nH]c2ccccc12)C(=O)O [TRYPTOPHAN] | no drug-induced liver injury reported | drug-induced liver injury reported | no drug-induced liver injury reported | – | – | –
15 | COC1=C(OC)C(=O)C(C/C=C(\C)CC/C=C(\C)CC/C=C(\C)CC/C=C(\C)CC/C=C(\C)CC/C=C(\C)CC/C=C(\C)CC/C=C(\C)CC/C=C(\C)CCC=C(C)C)=C(C)C1=O [UBIDECARENONE] | no drug-induced liver injury reported | drug-induced liver injury reported | no drug-induced liver injury reported | – | – | –
16 | O=c1cc[nH]c(=O)[nH]1 [URACIL] | drug-induced liver injury reported | drug-induced liver injury reported | no drug-induced liver injury reported | – | – | –

Row | Structure (SMILES) | Hepatotoxicity [1] | Hepatotoxicity [2] | Hepatotoxicity [3] | Hepatotoxicity ([1]; Liver) | Hepatotoxicity ([2]; Liver) | Hepatotoxicity ([3]; Liver)
17 | NC(N)=O [UREA] | no drug-induced liver injury reported | drug-induced liver injury reported | no drug-induced liver injury reported | – | – | –
18 | O=c1ccn([C@@H]2O[C@H](CO)[C@@H](O)[C@H]2O)c(=O)[nH]1 [URIDINE] | drug-induced liver injury reported | drug-induced liver injury reported | no drug-induced liver injury reported | – | – | –
19 | C[C@H](CCC(=O)O)[C@H]1CC[C@H]2[C@@H]3[C@@H](O)C[C@@H]4C[C@H](O)CC[C@]4(C)[C@H]3CC[C@]12C [URSODIOL] | drug-induced liver injury reported | drug-induced liver injury reported | drug-induced liver injury reported | – | – | –
20 | C/C=C/C[C@@H](C)C(=O)[C@H]1C(=O)N[C@@H](C(C)C)C(=O)N(C)CC(=O)N(C)[C@@H](CC(C)C)C(=O)N[C@@H](C(C)C)C(=O)N(C)[C@@H](CC(C)C)C(=O)N[C@@H](C)C(=O)N[C@H](C)C(=O)N(C)[C@@H](CC(C)C)C(=O)N(C)[C@@H](CC(C)C)C(=O)N(C)[C@@H](C(C)C)C(=O)N1C [VALSPODAR] | drug-induced liver injury reported | drug-induced liver injury reported | no drug-induced liver injury reported | – | – | –
21 | CN[C@H](CC(C)C)C(=O)N[C@H]1C(=O)N[C@@H](CC(N)=O)C(=O)N[C@H]2C(=O)N[C@H]3C(=O)N[C@H](C(=O)N[C@H](C(=O)O)c4cc(O)cc(O)c4-c4cc3ccc4O)[C@H](O)c3ccc(c(Cl)c3)Oc3cc2cc(c3O[C@@H]2O[C@H](CO)[C@@H](O)[C@H](O)[C@H]2O[C@H]2C[C@](C)(N)[C@H](O)[C@H](C)O2)Oc2ccc(cc2Cl)[C@H]1O [VANCOMYCIN] | drug-induced liver injury reported | drug-induced liver injury reported | no drug-induced liver injury reported | – | – | –
22 | COc1cc2c(Nc3ccc(Br)cc3F)ncnc2cc1OCC1CCN(C)CC1 [VANDETANIB] | drug-induced liver injury reported | no drug-induced liver injury reported | no drug-induced liver injury reported | – | – | –
23 | COc1ccc(C(CN(C)C)C2(O)CCCCC2)cc1 (stereo unspecified) [VENLAFAXINE] | drug-induced liver injury reported | no drug-induced liver injury reported | no drug-induced liver injury reported | – | – | –
24 | COc1ccc(C(=O)N2CCN(c3ccc4c(c3)CCC(=O)N4)CC2)cc1OC [VESNARINONE] | drug-induced liver injury reported | drug-induced liver injury reported | no drug-induced liver injury reported | – | – | –
25 | Nc1ncnc2c1ncn2[C@@H]1O[C@H](CO)[C@@H](O)[C@@H]1O [VIDARABINE] | drug-induced liver injury reported | drug-induced liver injury reported | no drug-induced liver injury reported | – | – | –
26 | C=CC(N)CCC(=O)O (stereo unspecified) [VIGABATRIN] | no drug-induced liver injury reported | drug-induced liver injury reported | no drug-induced liver injury reported | – | – | –
27 | CC[C@]1(O)C[C@@H]2CN(CCc3c([nH]c4ccccc34)[C@@](C(=O)OC)(c3cc4c(cc3OC)N(C)[C@H]3[C@@](O)(C(=O)OC)[C@H](OC(C)=O)[C@]5(CC)C=CCN6CC[C@]43[C@@H]65)C2)C1 [VINBLASTINE] | drug-induced liver injury reported | drug-induced liver injury reported | no drug-induced liver injury reported | – | – | –
28 | CC[C@]1(O)C[C@H]2CN(CCc3c([nH]c4ccccc34)[C@@](C(=O)OC)(c3cc4c(cc3OC)N(C=O)[C@H]3[C@@](O)(C(=O)OC)[C@H](OC(C)=O)[C@]5(CC)C=CCN6CC[C@]43[C@@H]65)C2)C1 [VINCRISTINE] | drug-induced liver injury reported | drug-induced liver injury reported | drug-induced liver injury reported | – | – | –
29 | CC[C@]12C=CCN3CC[C@@]4(c5cc([C@@]6(C(=O)OC)C[C@@H]7C[C@@H](C(C)(F)F)CN(Cc8c6[nH]c6ccccc86)C7)c(OC)cc5N(C)[C@H]4[C@@](O)(C(=O)OC)[C@@H]1OC(C)=O)[C@@H]32 [VINFLUNINE] | no drug-induced liver injury reported | drug-induced liver injury reported | no drug-induced liver injury reported | – | – | –
30 | CCC1=C[C@@H]2CN(C1)Cc1c([nH]c3ccccc13)[C@@](C(=O)OC)(c1cc3c(cc1OC)N(C)[C@H]1[C@@](O)(C(=O)OC)[C@H](OC(C)=O)[C@]4(CC)C=CCN5CC[C@]31[C@@H]54)C2 [VINORELBINE] | drug-induced liver injury reported | drug-induced liver injury reported | no drug-induced liver injury reported | – | – | –
31 | OCC(CO)N[C@H]1C[C@](O)(CO)[C@@H](O)[C@H](O)[C@H]1O [VOGLIBOSE] | drug-induced liver injury reported | drug-induced liver injury reported | no drug-induced liver injury reported | – | – | –
32 | C[C@@H](c1ncncc1F)[C@](O)(Cn1cncn1)c1ccc(F)cc1F [VORICONAZOLE] | drug-induced liver injury reported | no drug-induced liver injury reported | no drug-induced liver injury reported | – | – | –
